In series [1] the test system is anesthetized Sprague-Dawley rats (blood pressure, pulse frequency). As to the kind of experiment: Blood pressure and pulse frequency in anesthetized normal-weight Sprague-Dawley rats (i.v.). Format: in vivo, rat (Sprague-Dawley). The settings on record: for minimal effective dose: Rattus norvegicus, iv. The protocol: The anti-hypertensive properties of the imidazole derivatives of the present invention have been determined according to the following procedure. Sprague-Dawley rats of normal weight were first anesthetized with urethane. After this, the femoral artery was connected by way of a polyethylene tube with a blood pressure transducer. The test substance was then injected into the femoral vein and the blood pressure and the pulse frequency were registered with a recorder. The minimum doses producing a significant change were found, i.e. ± at least 20% in the case of blood pressure, and ± at least 3% in the case of pulse frequency.

In series [2] the test system is spontaneous hypertensive rats (SHR) (blood pressure). As to the kind of experiment: Blood pressure in unanesthetized Okamoto-Aoki spontaneous hypertensive rats (SHR), peroral. It is filed as in vivo, rat (Okamoto-Aoki SHR). The protocol:
In a further test for anti-hypertensive properties, unanesthetized Okamoto-Aoki spontaneous hypertensive rats (SHR) were used. The test derivative was administered perorally by way of a tube into the stomach. The blood pressure was measured from the tail using an indirect bloodless method.

The test system of series [3] is indomethacin-induced ulcers. As to the kind of experiment: Preventive effect on formation of indomethacin-induced ulcers. Format: in vivo, rat (female Sprague-Dawley). Conditions: for ED50: Rattus norvegicus, ip, 4 h, read-out: ED50 (ulcer prevention).
Series [4] can be described thus: Acute toxicity in female NMRI mice, i.v. Conditions: in vivo, iv, mouse. The protocol:
Acute toxicity was determined by using female mice of NMRI-Strain with an age of about 7 months and weighing 30-40 g. The administration of the test compound was i.v.

Series [5] can be described thus: Preventive effect on formation of indomethacin-induced ulcers. The settings on record: rat, in vivo, iv; LD50 (mouse, i.v.) / ED50 (ulcer); read-out: Therapeutic Index. Format: in vivo, rat (female Sprague-Dawley).
Series [6] deals with male mice on a 55° C. hot plate. As to the kind of experiment: Hot plate test. Conditions: for change in vivo at 1.5 mg/kg: 1.5 mg/kg i.p. Format: in vivo, mouse (male). The protocol: (§1) The analgesic activity of the compounds of formula (I) was tested in the following manner: […]
Test compounds or saline were given i.p. to male mice. Thirty minutes thereafter, the time for which the mice remained on a 55° C. plate was recorded. The results are expressed as compared to saline.
On the technique in general: Hot-plate and tail-flick tests time the reaction to a heat stimulus.

Series [7] has as its system rats (motility, muscle tone, catalepsia). As to the kind of experiment: Tranquilizing activity: Irwin screen in rats. Format: in vivo, rat. The protocol:
(§2) The tranquilizing activity of the compounds was determined by the following methods:
(1) Irwin screen in rats (Irwin S., Psychopharmacologia 13:222, 1968)
Especially sedatory and cataleptic activity and effects on muscle tone are observed.

Series [8] concerns cattle (avoidance, muscle tone). Nature of the series: Tranquilizing or taming effect on cattle. It is filed as in vivo. How it is done: as §2
(2) Tranquilizing or taming effect on cattle:
The test compounds were administered i.m. to cattle, mostly to heifers (150-200 kg).
The most suitable tranquilized state of an animal includes the ability to retain the upright position and coordination with minimal avoidance reactions to painful stimuli and handling. Thus, a combination of sedative and analgesic potency is required.

The subject of the next series is rats (blood pressure). Nature of the series: Applicant's experiments on prior-art imidazoles: anti-hypertensive activity / blood pressure in rats. It is filed as in vivo, rat. Conditions: for antihypertensive activity: found by our experiments.
Series [9] concerns acetic acid-induced writhing. As to the kind of experiment: Writhing test (acetic acid).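 As to Analgesic activity: ++ means marked effect and + means moderate effect.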 Format: in vivo, rat. How it is done:
as §1
The compounds studied and saline were administered p.o. to rats. Forty-five minutes later, 1 ml of 1% acetic acid was administered i.p. The number of writhes was recorded in the following 25 minute period (Koster et al: Fed. Proc. 18:412, 1959).

Series [10] relates to carrageenan-induced oedema. As to the kind of experiment: Inhibition of carrageenan-induced oedema.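 As to Anti-inflammatory activity: ++ means marked effect and + means moderate effect.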 It is filed as in vivo, rat. The protocol: The anti-inflammatory activity of the compounds of the invention was determined by inhibition of the carrageenan induced oedema in rats by the compounds examined (Winter C. A. et al., Proc. Soc. Exp. Biol. Med. 111:544, 1962).
On the technique in general: In the carrageenan paw model, swelling and tenderness develop within hours.

Setting [11] is: read-out: Blood Pressure Minimum Dose having a significant lowering effect.
Setting [12] is: read-out: Pulse frequency Minimum Dose having a significant lowering effect.
Where [13] appears, read: Mus musculus, ip, 0.5 h, read-out: increase in HP-time (%).
Setting [14] is: 10 μg/kg i.v., anesthetized rats, on an average.

Where two headings read alike, the source gives them in different places.

In general, LD50 refers to the dose at which mortality reaches 50%. A lower LD50 goes with a more toxic substance. `Cc1cccc(C)c1C(O)c1c[nH]cn1` (stereo not drawn) [4-[α-(2',6'-Dimethylphenyl)]hydroxymethylimidazole]: in [1] (300 μg/kg i.v.), the “lowering of blood pressure” value was “noticeable”. Besides, the values for the minimal effective dose in series [1] (setting [11]) and in [1] (setting [12]) were 0.1 to 3 mg/kg and 0.1 mg/kg, respectively. The “decrease of blood pressure” value in series [2] (awake SHR rats, 3 mg/kg p.o., 3 hours after administration) stood at 20%. In addition, the “prevention of the formation of ulcers” value in [3] (0.5 mg/kg) is given as “the prevention was partial”; in [3] (5 mg/kg) it was “completely prevented the formation of ulcers”. This molecule also came in with a 50% lethal dose (LD50) in [4] of 125 mg/kg.
What is called ED50 is the dose that gives a 50% effect, or the effect in half of the subjects. Turning to `Clc1ccccc1Cc1c[nH]cn1` [4-(2'-chlorobenzyl)imidazole, 4-(2'-Chlorobenzyl)imidazole], the selectivity ratio in series [5] was found to be 2170. Moreover, the ED50 in [3] turned out to be 0.03 mg/kg. Moreover, the Analgesic activity entry in [6] (1.5 mg/kg) is on record as “+”. Also, the change in vivo at 1.5 mg/kg in series [6] (setting [13]) was 200%. In series [7] (0.25 mg/kg), the catalepsia entry is “+” and the decrease of motility result was “+”. The loss of avoidance result in series [8] (0.1 mg/kg i.m.) is on record as “+”. In [4], this molecule registered a 50% lethal dose (LD50) of 65 mg/kg.
Turning to `CCc1[nH]cnc1Cc1ccccc1` [5(4)-ethyl-4(5)-benzylimidazole], the antihypertensive activity entry with rats (blood pressure) is “no antihypertensive activity”.
On to `Cc1cccc(Cc2c[nH]cn2)c1` [4-(3'-methylbenzyl)imidazole, 4-(3'-Methylbenzyl)imidazole], for which, in series [5], the selectivity ratio amounted to 1900. Further, the ED50 in [3] came out at 0.02 mg/kg. The Analgesic activity entry in [9] (30 mg/kg) is on record as “++”. The same molecule had a W-number in [9] (30 mg/kg p.o.) of 0. Besides, the change in vivo at 1.5 mg/kg in [6] (setting [13]) came out at 50%. The Anti-inflammatory activity entry in series [10] (100 mg/kg p.o. in the rat) is on record as “+”. Further, the inhibition in vivo at 100 mg/kg in [10] (Rattus norvegicus, po, read-out: inhibition carrageenan-induced oedema (%)) is 61%. For the same molecule, the loss of avoidance result in [8] (0.1 mg/kg i.m.) is listed as “+”. Moreover, in series [4], the median lethal dose (LD50) worked out at 38 mg/kg.
`Cc1cc(C)c(Cc2c[nH]cn2)c(C)c1` [4-(2',4',6'-trimethylbenzyl)imidazole, 4-(2',4',6'-Trimethylbenzyl)imidazole]: in series [1] (setting [11]), the minimal effective dose was 0.05 to 0.2 mg/kg. Further, the minimal effective dose in series [1] (setting [12]) was 0.03 mg/kg. Besides, in series [5], the selectivity ratio came to 2100. The ED50 in [3] stood at 0.03 mg/kg. Moreover, in series [7] (1.0 mg/kg), the catalepsia entry is “+” and the decrease of motility result is given as “++”. Further, in series [8] (0.1 mg/kg i.m.), the loss of avoidance entry is “+” and the “loss of muscle tone” value is reported as “+”. This molecule also gave an LD50 in [4] of 63 mg/kg.
Regarding `Cc1cccc(C)c1Cc1cnc[nH]1` [4-(2',6'-dimethylbenzyl)imidazole, 4-(2',6'-Dimethylbenzyl)imidazole], the “lowering of the blood pressure” value in series [1] (1 μg/kg i.v., anesthetized rats) is reported as “detectable lowering of the blood pressure”. In series [1] (3 μg/kg i.v., anesthetized rats), the blood pressure lowering result was “quite clear”. In addition, in series [1] (setting [14]), the “decrease of pulse frequency” value is listed as 12% and the “reduction of blood pressure” value is on record as 30%. The therapeutic range entry in series [1] (LD50 40 mg/kg i.v. in mice versus blood pressure lowering doses) is given as “very broad”. For the same molecule, the minimal effective dose in series [1] (setting [11]) was 0.003 to 0.1 mg/kg. Besides, the minimal effective dose in [1] (setting [12]) came to 0.003 mg/kg. Further, the “duration of the effect” value in series [1] (i.v., anesthetized rats, determination then interrupted) is given as “at least 50 minutes”. For the same molecule, the “decrease of blood pressure” value in [2] (awake SHR, 100 μg/kg p.o., four hours after administration) is recorded as “about 20%”. The “decrease of blood pressure” value in series [2] (awake SHR, 300 μg/kg p.o., four hours after administration) is given as 25%. Moreover, the selectivity ratio in series [5] worked out at 8000. For the same molecule, the “prevention of the formation of ulcers” value in series [3] (5 μg/kg i.p.) is recorded as “completely prevented the formation of ulcers”. For the same molecule, the ED50 in series [3] came out at 0.005 mg/kg. In series [7] (1.0 mg/kg), the decrease of motility result was “++” and the “loss of muscle tone” value was “+”. Moreover, in series [8] (0.05 mg/kg i.m.), the loss of avoidance result is reported as “++” and the “loss of muscle tone” value is “+”. In series [4], this molecule registered an LD50 of 40 mg/kg.
On to `Cc1cccc(Cc2c[nH]cn2)c1C` [4-(2',3'-dimethylbenzyl)imidazole, 4-(2',3'-Dimethylbenzyl)imidazole], for which the minimal effective dose in series [1] (setting [11]) lay in the range of 0.01 to 0.1 mg/kg; in series [1] (read-out: Pulse frequency Minimum Dose having a significant increasing effect), 3 to 10 mg/kg; in series [1] (setting [12]), 0.01 to 1 mg/kg. In series [5], the selectivity ratio is 7000. Further, the ED50 in series [3] was 0.005 mg/kg. Besides, the Analgesic activity result in [6] (0.6 mg/kg) is given as “+”. Also, in [6] (Mus musculus, ip, 0.5 h, 0.6 mg/kg i.p., read-out: increase in HP-time (%)), the change in vivo at 0.6 mg/kg is 200%. For the same molecule, the decrease of motility result in series [7] (1.0 mg/kg) is “+”. Further, the “loss of muscle tone” value in series [7] (1.0 mg/kg) is listed as “+”. The loss of avoidance entry in series [8] (0.1 mg/kg i.m.) was “++”. For the same molecule, the 50% lethal dose (LD50) in series [4] was 35 mg/kg.
As to `Cc1[nH]cnc1Cc1ccccc1` [4-benzyl-5-methylimidazole], the antihypertensive activity entry with rats (blood pressure) is “no antihypertensive activity”. The “blood pressure change in rats” value in the series on rats (blood pressure) (rats, 1 mg/kg i.v.) is recorded as “the blood pressure rises”. Moreover, in the series on rats (blood pressure) (rats, at any dosage), the “blood pressure lowering effect in rats” value was “no blood pressure lowering effect”.

These data come from patent US4443466A, “4-Benzyl- and 4-benzoyl-substituted imidazole derivatives and use as medicaments” (priority 1980, dated 1984).
